According to ChEMBL document CHEMBL1201862, “PubChem BioAssay data set” (2004):
Activity calls are given as the source filed them.

Assays:
Estrogen receptor = target: T1, Estrogen receptor (Homo sapiens, UniProt P03372);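 note: potency for inhibiting coactivator peptide recruitment to the receptor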
T1 sequence (P03372 whole entry): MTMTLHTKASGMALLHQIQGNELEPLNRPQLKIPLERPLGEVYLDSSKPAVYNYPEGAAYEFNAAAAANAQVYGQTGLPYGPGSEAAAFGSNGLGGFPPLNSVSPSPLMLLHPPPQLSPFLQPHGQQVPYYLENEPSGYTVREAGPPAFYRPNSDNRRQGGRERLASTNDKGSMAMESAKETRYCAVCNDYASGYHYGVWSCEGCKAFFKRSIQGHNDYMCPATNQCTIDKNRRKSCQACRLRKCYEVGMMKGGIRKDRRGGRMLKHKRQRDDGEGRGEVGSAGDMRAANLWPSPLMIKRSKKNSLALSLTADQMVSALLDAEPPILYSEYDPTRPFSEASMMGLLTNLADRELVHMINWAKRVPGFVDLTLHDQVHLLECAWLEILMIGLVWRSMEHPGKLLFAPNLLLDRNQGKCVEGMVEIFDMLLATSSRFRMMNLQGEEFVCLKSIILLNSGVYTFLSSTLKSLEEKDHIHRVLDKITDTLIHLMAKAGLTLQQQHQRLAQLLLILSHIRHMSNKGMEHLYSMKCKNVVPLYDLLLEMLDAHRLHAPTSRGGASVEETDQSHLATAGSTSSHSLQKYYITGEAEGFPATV

Genome polyprotein = Genome polyprotein (dengue virus type 2, UniProt P29990); assay: flavivirus cap methylation enzyme inhibition – biochemical, confirmation dose response, primary screen (AID 588689); type: functional
[1] = target: T2, Rac GTPase-activating protein 1 (Homo sapiens, UniProt Q9H0H5); assay: blockers of MgcRacGAP-driven Rac1 GTP hydrolysis – biochemical, ADP Hunter fluorescence, primary and confirmatory, confirmation (AID 624330); type: functional
T2 sequence (Q9H0H5 whole entry): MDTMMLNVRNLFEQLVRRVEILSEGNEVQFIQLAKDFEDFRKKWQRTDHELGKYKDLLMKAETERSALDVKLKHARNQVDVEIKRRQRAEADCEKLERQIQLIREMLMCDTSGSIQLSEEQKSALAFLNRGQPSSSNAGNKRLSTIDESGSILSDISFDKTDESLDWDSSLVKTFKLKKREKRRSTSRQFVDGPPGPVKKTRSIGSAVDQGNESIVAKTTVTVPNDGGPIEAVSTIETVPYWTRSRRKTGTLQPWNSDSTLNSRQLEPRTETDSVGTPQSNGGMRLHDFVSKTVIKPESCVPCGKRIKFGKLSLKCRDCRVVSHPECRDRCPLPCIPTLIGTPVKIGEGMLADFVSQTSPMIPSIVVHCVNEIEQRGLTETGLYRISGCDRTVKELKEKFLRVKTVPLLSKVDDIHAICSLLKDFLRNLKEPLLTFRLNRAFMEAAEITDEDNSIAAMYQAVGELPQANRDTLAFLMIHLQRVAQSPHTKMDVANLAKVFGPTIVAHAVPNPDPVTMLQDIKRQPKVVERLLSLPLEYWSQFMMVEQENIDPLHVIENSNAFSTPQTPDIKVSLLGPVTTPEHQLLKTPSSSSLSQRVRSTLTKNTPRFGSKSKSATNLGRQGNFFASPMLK

[2] = non-specific 3'UTR reporter inhibition in Clone20-Shn3RL – cell-based, Renilla luciferase, cherry-picked, counter-screen for Shn3 inhibitor project, dose response (AID 624133); type: functional
[3] = reduction of Shn3 3'UTR-driven luciferase in osteoblasts – cell-based, Clone20 osteoblasts, firefly luciferase, cherry-picked, dose response (AID 624132); type: functional;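 note: firefly luciferase luminescence from reporter carrying the Shn3 3'UTR in osteoblasts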
[4] = target: T3, Heat shock factor protein 1 (Mus musculus, UniProt P38532); assay: enhancement of HSF1-driven luciferase signal – cell-based, NIH3T3, luminescence, dose retest, confirmation (AID 435004); type: functional;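 note: stress induced by proteasome inhibitor MG132 added 30 min after compound; luciferase reporter driven by HSF1 response element in NIH3T3 cells; actives raise luminescence as potentiators of the MG132 stress response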
T3 sequence (P38532 whole entry): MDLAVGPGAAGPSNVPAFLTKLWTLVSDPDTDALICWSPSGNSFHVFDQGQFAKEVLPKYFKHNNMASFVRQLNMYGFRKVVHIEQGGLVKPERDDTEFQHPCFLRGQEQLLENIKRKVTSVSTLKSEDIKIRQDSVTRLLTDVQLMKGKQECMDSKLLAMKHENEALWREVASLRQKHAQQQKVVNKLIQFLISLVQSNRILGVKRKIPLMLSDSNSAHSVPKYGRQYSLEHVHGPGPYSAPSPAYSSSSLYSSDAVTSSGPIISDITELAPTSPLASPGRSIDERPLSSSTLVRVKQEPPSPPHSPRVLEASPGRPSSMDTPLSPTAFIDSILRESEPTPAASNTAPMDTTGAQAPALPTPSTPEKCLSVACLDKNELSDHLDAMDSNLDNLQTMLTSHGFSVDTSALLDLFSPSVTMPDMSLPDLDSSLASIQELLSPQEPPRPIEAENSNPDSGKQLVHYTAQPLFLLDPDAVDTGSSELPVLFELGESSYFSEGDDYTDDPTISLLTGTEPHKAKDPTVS

[5] = reduced cellular PGC1a acetyl-lysine signal – cell-based, cherry-picked samples, dose response (AID 720514); type: functional;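 note: potency may reflect raised or lowered acetylation signal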
[6] = loss of viability in HepG2 cells – cell-based, CellTiter-Glo, cherry-picked, cytotoxicity control for Shn3 inhibitor project, dose response (AID 624134); type: functional
[7] = target: DNA dC->dU-editing enzyme APOBEC-3A (Homo sapiens, UniProt P31941); assay: Dose Response confirmation of small molecule APOBEC3A DNA Deaminase Inhibitors via a fluorescence-based single-stranded DNA deaminase assay. [Related pubchem assays (depositor defined):AID493011, AID493024]; type: functional
[8] = target: DNA dC->dU-editing enzyme APOBEC-3G (Homo sapiens, UniProt Q9HC16); type: functional;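 note: Dose-response counterscreen measuring inhibition of APOBEC3G DNA deaminase activity, run while confirming APOBEC3A inhibitors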
[9] = target: Peroxisome proliferator-activated receptor gamma/Nuclear receptor coactivator 1 (Homo sapiens, UniProt P37231); type: functional;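 note: agonist potency as compounds enhance coactivator SRC-1 recruitment to PPARgamma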
Cytochrome P450 2C9 = Cytochrome P450 2C9 (Homo sapiens, UniProt P11712)
[10] = target: Peroxisome proliferator-activated receptor gamma/Nuclear receptor coactivator 2 (Homo sapiens, UniProt P37231); type: functional;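 note: agonist potency for raising coactivator recruitment to the receptor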
[11] = target: Peroxisome proliferator-activated receptor gamma/Nuclear receptor coactivator 3 (Homo sapiens, UniProt P37231); type: functional;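 note: agonist potency for raising coactivator recruitment to the receptor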
[12] = target: T3, Heat shock factor protein 1; assay: decrease of HSF1-responsive luciferase luminescence – cell-based, NIH3T3, dose retest, confirmation (AID 2382); type: functional;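 note: NIH3T3 fibroblasts with HSF1-driven luciferase reporter stressed by proteasome inhibitor MG132; luminescence from HSF1-driven luciferase expression after 8 hours of MG132 stress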
[13] = target: T4, Short transient receptor potential channel 4 (Mus musculus, UniProt Q9QUQ5); assay: block of DAMGO-driven TRPC4 calcium entry – cell-based, HEK293 TRPC4/mu-opioid, Fluo-4 calcium, dose response (AID 434942); type: functional;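 note: potency of inhibitors blocking the TRPC4 calcium response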
T4 sequence (Q9QUQ5 whole entry): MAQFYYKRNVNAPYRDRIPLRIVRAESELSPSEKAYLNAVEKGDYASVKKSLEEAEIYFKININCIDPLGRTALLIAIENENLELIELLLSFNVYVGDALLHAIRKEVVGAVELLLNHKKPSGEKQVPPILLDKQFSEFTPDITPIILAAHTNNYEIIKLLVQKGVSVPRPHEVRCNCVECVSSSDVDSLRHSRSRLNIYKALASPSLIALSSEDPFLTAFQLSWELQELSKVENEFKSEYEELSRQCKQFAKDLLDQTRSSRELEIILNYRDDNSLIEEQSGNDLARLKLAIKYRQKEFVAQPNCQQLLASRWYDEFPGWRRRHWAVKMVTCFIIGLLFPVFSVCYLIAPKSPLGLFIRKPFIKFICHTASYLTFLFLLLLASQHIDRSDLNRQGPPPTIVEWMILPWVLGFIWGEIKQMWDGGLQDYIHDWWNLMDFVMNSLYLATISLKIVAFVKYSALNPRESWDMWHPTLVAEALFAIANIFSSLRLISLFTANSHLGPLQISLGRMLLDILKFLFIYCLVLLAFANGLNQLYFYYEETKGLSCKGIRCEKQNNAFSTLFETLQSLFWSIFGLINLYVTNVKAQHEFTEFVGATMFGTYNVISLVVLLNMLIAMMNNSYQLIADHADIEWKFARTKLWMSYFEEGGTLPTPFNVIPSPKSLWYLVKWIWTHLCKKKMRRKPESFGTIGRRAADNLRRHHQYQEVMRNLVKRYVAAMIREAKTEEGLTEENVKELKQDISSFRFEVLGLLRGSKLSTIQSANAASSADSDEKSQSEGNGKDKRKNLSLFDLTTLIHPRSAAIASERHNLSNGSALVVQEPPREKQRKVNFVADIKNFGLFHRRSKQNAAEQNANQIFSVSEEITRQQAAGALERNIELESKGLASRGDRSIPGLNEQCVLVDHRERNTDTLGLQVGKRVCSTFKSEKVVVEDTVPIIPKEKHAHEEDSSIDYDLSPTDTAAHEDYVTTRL

SUMO-activating enzyme = SUMO-activating enzyme (Homo sapiens, UniProt Q9UBT2); assay: blockers of UBC9-mediated SUMO conjugation – biochemical, AlphaScreen, SUMOylation inhibitor project, confirmation (AID 2018); type: functional
Large T antigen = Large T antigen (Simian virus 40, UniProt P03070); type: functional, Betapolyomavirus macacae;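 note: Confirmatory-stage PubChem screen for compounds that inhibit SV40 T antigen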
Protein Tat = target: T5, Protein Tat (Human immunodeficiency virus type 1 group M subtype B (isolate HXB2)(HIV-1), UniProt P04608); type: functional;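 note: tat binding to TAR RNA read out by fluorescence polarization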
T5 sequence (P04608 whole entry): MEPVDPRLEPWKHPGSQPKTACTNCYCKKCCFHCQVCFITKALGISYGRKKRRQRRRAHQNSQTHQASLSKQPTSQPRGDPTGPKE

HEK293 = assay: EBV LMP1 TES2 canonical NF-kB signalling blockers – cell-based, HEK293, luciferase, cherry-pick, dose response (AID 588343); type: functional; conditions: Homo sapiens
[14] = target: Luciferin 4-monooxygenase (Photinus pyralis, UniProt P08659); assay: inhibition of purified Photinus pyralis luciferase – biochemical, luminescence, dose response (AID 1891)
[15] = Luminescence Cell-Based Dose Confirmation HTS to Identify Inhibitors of Platelet Dense Granule Release. [Related pubchem assays: 1663 (Primary HTS), 1678 (Summary of Project)]; type: functional

Peroxisome proliferator-activated receptor gamma/Nuclear receptor coactivator 3, sequence (P37231 whole entry): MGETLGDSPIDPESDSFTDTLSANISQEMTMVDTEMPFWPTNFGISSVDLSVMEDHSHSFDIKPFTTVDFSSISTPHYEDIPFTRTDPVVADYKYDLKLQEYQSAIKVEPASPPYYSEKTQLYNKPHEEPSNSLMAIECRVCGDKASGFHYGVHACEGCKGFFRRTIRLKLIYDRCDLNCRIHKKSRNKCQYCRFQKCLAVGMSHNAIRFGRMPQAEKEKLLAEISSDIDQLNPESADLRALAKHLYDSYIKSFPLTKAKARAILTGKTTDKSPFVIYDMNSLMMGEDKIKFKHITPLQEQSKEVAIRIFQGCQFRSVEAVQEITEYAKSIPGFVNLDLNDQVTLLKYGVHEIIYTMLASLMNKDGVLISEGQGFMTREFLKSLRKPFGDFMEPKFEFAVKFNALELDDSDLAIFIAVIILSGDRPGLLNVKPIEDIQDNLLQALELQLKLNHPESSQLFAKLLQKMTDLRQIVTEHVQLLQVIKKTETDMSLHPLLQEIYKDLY
Peroxisome proliferator-activated receptor gamma/Nuclear receptor coactivator 3, sequence (Q9Y6Q9 whole entry, further chain): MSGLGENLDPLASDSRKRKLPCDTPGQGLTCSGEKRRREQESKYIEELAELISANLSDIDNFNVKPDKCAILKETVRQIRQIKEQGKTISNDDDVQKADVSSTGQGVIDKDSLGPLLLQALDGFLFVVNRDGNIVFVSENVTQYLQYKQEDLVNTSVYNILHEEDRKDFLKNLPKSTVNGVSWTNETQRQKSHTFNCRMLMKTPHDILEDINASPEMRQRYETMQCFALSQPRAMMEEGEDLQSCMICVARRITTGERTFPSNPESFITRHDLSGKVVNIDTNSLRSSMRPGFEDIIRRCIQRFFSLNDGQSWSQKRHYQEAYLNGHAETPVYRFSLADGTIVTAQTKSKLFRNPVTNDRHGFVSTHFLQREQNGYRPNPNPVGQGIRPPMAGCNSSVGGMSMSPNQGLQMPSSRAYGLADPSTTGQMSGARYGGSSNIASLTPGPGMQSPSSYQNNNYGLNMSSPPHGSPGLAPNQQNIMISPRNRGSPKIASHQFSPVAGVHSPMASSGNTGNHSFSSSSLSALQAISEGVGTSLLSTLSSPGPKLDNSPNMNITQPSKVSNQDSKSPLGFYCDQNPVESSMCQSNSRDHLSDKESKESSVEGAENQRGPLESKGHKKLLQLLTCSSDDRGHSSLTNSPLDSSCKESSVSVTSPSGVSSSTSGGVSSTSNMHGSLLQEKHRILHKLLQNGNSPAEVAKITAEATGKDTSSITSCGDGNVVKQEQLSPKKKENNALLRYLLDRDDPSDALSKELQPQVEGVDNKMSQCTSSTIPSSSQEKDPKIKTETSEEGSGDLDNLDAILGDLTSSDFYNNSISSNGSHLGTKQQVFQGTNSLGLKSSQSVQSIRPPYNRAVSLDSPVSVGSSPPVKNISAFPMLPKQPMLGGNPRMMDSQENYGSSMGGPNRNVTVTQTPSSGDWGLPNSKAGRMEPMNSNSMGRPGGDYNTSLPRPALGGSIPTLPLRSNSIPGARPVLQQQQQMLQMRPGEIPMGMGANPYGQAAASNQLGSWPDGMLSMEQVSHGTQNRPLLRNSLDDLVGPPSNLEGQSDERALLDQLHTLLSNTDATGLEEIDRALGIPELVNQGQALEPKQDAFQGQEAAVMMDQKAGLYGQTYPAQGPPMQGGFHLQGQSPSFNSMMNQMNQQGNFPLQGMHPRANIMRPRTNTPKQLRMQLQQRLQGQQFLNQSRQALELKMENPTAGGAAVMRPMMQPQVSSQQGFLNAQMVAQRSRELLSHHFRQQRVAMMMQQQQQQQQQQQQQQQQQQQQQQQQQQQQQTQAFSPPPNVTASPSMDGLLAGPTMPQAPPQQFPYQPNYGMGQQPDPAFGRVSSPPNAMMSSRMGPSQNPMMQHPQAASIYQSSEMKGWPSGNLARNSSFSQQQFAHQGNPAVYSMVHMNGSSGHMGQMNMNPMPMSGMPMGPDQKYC
Peroxisome proliferator-activated receptor gamma/Nuclear receptor coactivator 1, sequence (P37231 whole entry): as the sequence (P37231 whole entry) above
Peroxisome proliferator-activated receptor gamma/Nuclear receptor coactivator 1, sequence (Q15788 whole entry, further chain): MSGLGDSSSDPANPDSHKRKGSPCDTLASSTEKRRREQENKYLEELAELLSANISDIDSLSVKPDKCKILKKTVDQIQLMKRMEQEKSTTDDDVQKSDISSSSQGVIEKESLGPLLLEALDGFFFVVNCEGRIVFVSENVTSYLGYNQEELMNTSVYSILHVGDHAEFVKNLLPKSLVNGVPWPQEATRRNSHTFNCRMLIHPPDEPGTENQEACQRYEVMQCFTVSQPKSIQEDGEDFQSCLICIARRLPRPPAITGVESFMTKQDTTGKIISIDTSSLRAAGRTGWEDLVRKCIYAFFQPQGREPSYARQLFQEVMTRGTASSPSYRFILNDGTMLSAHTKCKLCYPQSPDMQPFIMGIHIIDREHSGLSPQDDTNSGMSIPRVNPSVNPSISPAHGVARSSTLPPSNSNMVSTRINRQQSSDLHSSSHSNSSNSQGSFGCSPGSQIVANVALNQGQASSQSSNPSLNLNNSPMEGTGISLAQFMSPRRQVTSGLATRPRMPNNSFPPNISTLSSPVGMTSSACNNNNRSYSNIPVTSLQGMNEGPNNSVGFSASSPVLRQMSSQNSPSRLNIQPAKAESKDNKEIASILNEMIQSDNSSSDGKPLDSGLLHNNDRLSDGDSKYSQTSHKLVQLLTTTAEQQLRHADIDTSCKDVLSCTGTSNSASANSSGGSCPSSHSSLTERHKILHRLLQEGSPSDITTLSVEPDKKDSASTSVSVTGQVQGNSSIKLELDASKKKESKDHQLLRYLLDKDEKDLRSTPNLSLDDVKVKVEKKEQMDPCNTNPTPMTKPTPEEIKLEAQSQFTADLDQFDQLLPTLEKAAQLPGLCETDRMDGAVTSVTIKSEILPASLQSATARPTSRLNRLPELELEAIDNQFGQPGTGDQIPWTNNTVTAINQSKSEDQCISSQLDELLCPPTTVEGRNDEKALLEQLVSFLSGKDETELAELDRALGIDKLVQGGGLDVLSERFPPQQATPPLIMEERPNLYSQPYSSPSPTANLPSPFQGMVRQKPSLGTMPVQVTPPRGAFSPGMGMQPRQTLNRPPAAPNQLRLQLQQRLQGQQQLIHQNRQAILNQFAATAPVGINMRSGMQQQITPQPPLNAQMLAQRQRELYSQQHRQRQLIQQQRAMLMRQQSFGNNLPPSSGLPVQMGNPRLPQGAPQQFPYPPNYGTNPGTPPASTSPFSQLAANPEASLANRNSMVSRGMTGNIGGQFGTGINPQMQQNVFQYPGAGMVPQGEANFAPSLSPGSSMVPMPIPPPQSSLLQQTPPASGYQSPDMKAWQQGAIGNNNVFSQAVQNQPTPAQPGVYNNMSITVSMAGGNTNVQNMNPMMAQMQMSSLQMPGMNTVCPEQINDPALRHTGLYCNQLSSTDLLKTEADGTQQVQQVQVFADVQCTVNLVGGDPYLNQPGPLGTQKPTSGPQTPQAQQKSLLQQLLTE
DNA dC->dU-editing enzyme APOBEC-3A, sequence (P31941 whole entry): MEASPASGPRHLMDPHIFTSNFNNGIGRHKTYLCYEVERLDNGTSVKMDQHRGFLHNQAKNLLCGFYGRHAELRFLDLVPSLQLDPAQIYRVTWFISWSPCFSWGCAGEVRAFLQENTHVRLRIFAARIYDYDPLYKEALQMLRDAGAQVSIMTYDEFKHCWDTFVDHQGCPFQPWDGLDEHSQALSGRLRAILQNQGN
Genome polyprotein, sequence (P29990 2492-3391 limits assumed): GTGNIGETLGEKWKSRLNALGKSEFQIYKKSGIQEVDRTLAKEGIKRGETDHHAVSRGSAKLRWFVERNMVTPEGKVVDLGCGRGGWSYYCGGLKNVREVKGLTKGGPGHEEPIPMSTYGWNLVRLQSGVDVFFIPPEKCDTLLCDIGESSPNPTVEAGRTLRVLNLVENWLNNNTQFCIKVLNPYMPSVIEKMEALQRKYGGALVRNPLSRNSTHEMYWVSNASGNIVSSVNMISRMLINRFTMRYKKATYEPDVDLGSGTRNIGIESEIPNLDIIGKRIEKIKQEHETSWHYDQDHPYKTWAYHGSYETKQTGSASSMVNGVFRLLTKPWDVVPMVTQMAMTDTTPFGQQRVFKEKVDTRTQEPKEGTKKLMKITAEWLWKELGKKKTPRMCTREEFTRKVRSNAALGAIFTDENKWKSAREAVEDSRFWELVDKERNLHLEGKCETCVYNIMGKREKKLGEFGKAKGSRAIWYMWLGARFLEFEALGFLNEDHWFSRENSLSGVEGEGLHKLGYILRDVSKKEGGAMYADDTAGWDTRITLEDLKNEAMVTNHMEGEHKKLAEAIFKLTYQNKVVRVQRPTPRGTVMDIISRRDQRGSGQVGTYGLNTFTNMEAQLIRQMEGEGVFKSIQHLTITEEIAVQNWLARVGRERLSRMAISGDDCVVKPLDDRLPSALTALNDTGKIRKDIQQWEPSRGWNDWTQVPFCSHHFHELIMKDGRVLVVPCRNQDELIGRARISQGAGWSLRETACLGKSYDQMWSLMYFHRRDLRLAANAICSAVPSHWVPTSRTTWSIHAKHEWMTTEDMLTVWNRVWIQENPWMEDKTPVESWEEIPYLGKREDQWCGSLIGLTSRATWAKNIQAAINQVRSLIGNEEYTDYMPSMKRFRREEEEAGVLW

Cc1cc(C)c(NC(=O)CSc2nc3ccc(NC(=O)CSc4nnnn4Cc4ccccc4)cc3s2)c(C)c1
IC50 (Estrogen receptor): > 50 µM (not active)

CSc1ccc(C(c2c(C(=O)O)[nH]c3ccccc23)c2c(C(=O)O)[nH]c3ccccc23)cc1
IC50 (Genome polyprotein): 48.8 µM (active)

CCOC(=O)CCC(=O)Nc1ccccc1C(N)=O
IC50 (Estrogen receptor): > 50 µM (not active)

O=C(O)CCn1cc(C=C2C(=O)NC(=O)NC2=O)c(-c2ccc(Br)cc2)n1
IC50 (Genome polyprotein): 7.97 µM (active) | IC50 [1]: 95.3 µM (active)

Cc1ccc([C@H]2C(C(=O)O)=CC[C@@H](c3ccc(Cl)c(Cl)c3)N2S(=O)(=O)c2ccc(C)cc2)cc1
IC50 (Genome polyprotein): 38.8 µM (active)

Fc1ccc(/C=C2\CCCC3=C2Nc2ncnn2C3c2ccc(F)cc2)cc1 (stereo not given)
AC50 [2]: 11.3 µM (active) | AC50 [3]: 8.47 µM (active) | EC50 [4]: 20.7 µM (active) | AC50 [5]: 9.46 µM (active) | AC50 [6]: 37.9 µM (active)

COC(=O)c1ccc2ccn(CC(=O)NC(C)C)c2c1
IC50 [7]: 3.92 µM (active) | IC50 [8]: 4.95 µM (active)

Cc1nn(-c2ccc(Cl)cc2)c2sc(C(=O)c3c(N)n(C)c(=O)n(C)c3=O)cc12
EC50 [9]: 18.4 µM (not active) | AC50 (Cytochrome P450 2C9): 25.1 µM (inconclusive) | EC50 [10]: 18 µM (not active) | EC50 [11]: 33.3 µM (not active)

NC(=O)C[N+]1(CC#CC(O)(c2ccccc2)c2ccccc2)CCCC1
IC50 [7]: 2.74 µM (active) | IC50 [8]: 2.59 µM (active)

COCc1cc(C)nc(Sc2nc3c(c(=O)n(C)c(=O)n3C)n2C)c1C#N
IC50 [7]: 7.99 µM (active) | IC50 [8]: 8.47 µM (active)

N#Cc1c(NC(=O)CSc2ncccn2)oc(-c2ccccc2)c1-c1ccccc1
IC50 (Estrogen receptor): 9.58 µM (active) | EC50 [12]: 9.25 µM (active)

Fc1ccc(-c2nnc(-n3nnc4ccccc43)c3ccccc23)cc1
IC50 (Estrogen receptor): 26.3 µM (active)

CCn1c2ccccc2c2cc(NC(=O)c3ccccc3-c3ccccc3C(=O)O)ccc21
IC50 (Genome polyprotein): 42.9 µM (active)

Cc1ccc(CNC(=O)COc2ccc(C(=O)c3ccc(F)cc3)cc2)cc1
EC50 [9]: > 79.4 µM (not active) | EC50 [10]: > 79.4 µM (not active) | EC50 [11]: > 79.4 µM (not active)

Cc1ccc(C2CN(C)CC2C(=O)c2ccc(F)cc2)cc1 (stereo not given)
EC50 [13]: 13.3 µM (active)

O=C(COC(=O)c1cc(NS(=O)(=O)c2cccs2)ccc1O)Nc1cc(Cl)ccc1Cl
IC50 (SUMO-activating enzyme): 28.8 µM (active)

COC(=O)c1c(NC(=O)CSc2nc[nH]n2)sc(C)c1C
EC50 [13]: 4.73 µM (active)

CCC(C)(C)n1nnnc1C(c1ccc2ncccc2c1)N1CCN(c2ccc(O)cc2)CC1 (stereo not given)
IC50 (Large T antigen): 34.6 µM (active) | IC50 (Protein Tat): > 100 µM (active)

COC(=O)C1=C(C)N(CC2CC2)C(NCc2cc(OC)c(OC)c(OC)c2)=N[C@H]1c1ccccc1
IC50 [7]: 8.83 µM (active) | IC50 [8]: 14 µM (active)

N#Cc1c(N)nc(SCC(=O)NC2CCCCC2)c(C#N)c1-c1ccc(Cl)cc1
EC50 [9]: 34.6 µM (not active) | EC50 [10]: 21.9 µM (not active) | EC50 [11]: 37.1 µM (not active)

CCN1C(=NCC2CC2)N[C@@H](c2ccccc2)C(C(=O)OC)=C1C
IC50 [7]: 3.37 µM (active) | IC50 [8]: 8.56 µM (active)

COc1ccccc1C(=O)Nc1nc(-c2cccs2)c(NC(C)=O)s1
IC50 (Estrogen receptor): 19 µM (active)

O=C(O)C1=CC[C@@H](c2ccc(Cl)cc2)N(S(=O)(=O)c2ccc(Cl)cc2)[C@H]1c1cccc(Cl)c1
IC50 (Genome polyprotein): 37.4 µM (active)

COc1ccc(NC(=O)c2ccccn2)cc1
AC50 (HEK293): 3.65 µM (active) | EC50 [14]: 9.53 µM (active) | EC50 [15]: 10.5 µM (active)

CCOC(=O)/C=C1\SCC(=O)N1CC(=O)NC(C)c1ccc(F)cc1 (stereo not given)
IC50 (Protein Tat): > 100 µM (active)

CSc1nsc(NC(=O)Cc2ccccc2)n1
EC50 [13]: 5.31 µM (active)

COc1ccc(-c2c(C#N)c(C)nc3c2C(=O)c2ccccc2-3)cc1
EC50 [9]: 55.3 µM (not active) | EC50 [10]: 32.6 µM (not active) | EC50 [11]: 48.3 µM (not active)
